According to patent US12116424B2, “Compounds and compositions for modulating Listeria virulence” (priority 2021, dated 2024):
Like-named read-outs stand apart in the source and are kept apart here. Where a SMILES comes first, the peptide text is derived from it. Bridges are numbered along the chain shown (N, C = ends). [ ]: non-standard residue; d: D form.

How the values were obtained:
L. monocytogenes AgrC [1] = biological target: T1, L. monocytogenes AgrC (Listeria monocytogenes serovar 1/2a, UniProt Q8YAR5); test: Fluorescence (agr-GFP) reporter agonism assay, ΔagrD reporter strain; format: cell-based; design: Emax: dose or concentration left out as unconfirmed; conditions: for agonism activity (in words): ΔagrD reporter; for agonism or antagonism activity compared to vehicle (FIG. 1B): 10 μM, wild-type reporter or ΔagrD reporter
Source text: (§1) Construction of Listeria agr Reporter Strains. A gene block was designed and purchased from Integrated DNA Technologies to contain an EagI recognition site, the PII promoter of the agr system, the 3′ UTR of hly, super folder GFP, and a SaII recognition site. The gene block was digested with EagI and SaII, cloned into an EagI/SaII-cut pAM401 plasmid resulting in the plasmid pAM401-KW1, and then transformed into E. coli XL1-Blue competent cells. The insertion into pAM401 was confirmed using Kapa polymerase and primers DAP337 and DAP338, and additional confirmation via commercial sequencing. Purified plasmid was transformed into the conjugative E. coli S17 strain, which was used to conjugate to EGD-e and EGD-e ΔagrD to generate the agr-GFP reporter strains EGD-e:pAM401-KW1 and EGD-e ΔagrD:pAM401-KW1. Conjugation was verified using primers DAP337 and DAP338.
(§2) Fluorescence reporter assay protocol. For QS (agr) reporter assays, peptide stock solutions in DMSO (1 mM) were serially diluted in DMSO, and 2 μL of solution was added to each well in a black 96-well plate (polystyrene microtiter plate, Costar). Agonism assays utilized the ΔagrD reporter strain, with 2 μL of 100 μM AIP (final concentration 1 μM) as a positive control and 2 μL of DMSO as a negative control. Antagonism assays utilized the EGD-e reporter strain, with 2 μL of DMSO as a positive control. In both assays, wells containing only BHI media served as negative controls for normalization. An overnight culture of bacteria was diluted 1:50 in fresh BHI, then 198 μL were transferred to each well (excluding the media control wells). Plates were then incubated at 37° C. for 24 hours with shaking at 200 rpm. Fluorescence of GFP (excitation at 500 nm, emission at 540 nm) and OD600 of each well was measured using BioTek Synergy 2 plate reader. Measurements were processed by subtracting background fluorescence (BHI media), correcting by OD600, and the normalizing using the 1 μM AIP or the DMSO control for the agonism and antagonism assays, respectively. Non-linear regression curves were fitted to the data sets in GraphPad Prism 7 by using variable slope (four-parameter) dose-response analysis to obtain potency, efficacy, and statistical information about the activity of tested peptides. Each peptide was tested with three technical replicates and three biological replicates. All data derived from fluorescent reporter strains are represented with data points signifying the mean and error bars signifying the standard deviation from all replicates.
Preparation and Validation of Listeria agr Reporter Strains. In order to facilitate profiling the native AIP and its analogs for agr activity, L. monocytogenes agr GFP reporters were designed and constructed as described above (see Materials and General Methods). Briefly, a plasmid containing the agr promoter region upstream of gfp was transformed into wild-type (EGD-e) and ΔagrD L. monocytogenes strains. The wild-type reporter naturally produces its own AIP and is able to activate AgrC, which may subsequently phosphorylate AgrA for productive binding to DNA and triggering the production of GFP (FIG. 1A). The ΔagrD reporter, lacking the ability to produce its own AIP and thereby activate AgrC, is unable to trigger substantial production of GFP. However, adding exogenous AIP to the ΔagrD reporter results in an increase of fluorescence, indicating agr activity has been restored.

L. monocytogenes AgrC [2] = biological target: T1, L. monocytogenes AgrC; test: Fluorescence (agr-GFP) reporter antagonism assay, wild-type EGD-e reporter strain; format: cell-based
Source text: as §1, §2
Preparation and Validation of Listeria agr Reporter Strains. […] However, adding exogenous AIP to the ΔagrD reporter results in an increase of fluorescence, indicating agr activity has been restored.

[3] = read-out: Max Activation Observed

T1 sequence (Q8YAR5 entry or part of it): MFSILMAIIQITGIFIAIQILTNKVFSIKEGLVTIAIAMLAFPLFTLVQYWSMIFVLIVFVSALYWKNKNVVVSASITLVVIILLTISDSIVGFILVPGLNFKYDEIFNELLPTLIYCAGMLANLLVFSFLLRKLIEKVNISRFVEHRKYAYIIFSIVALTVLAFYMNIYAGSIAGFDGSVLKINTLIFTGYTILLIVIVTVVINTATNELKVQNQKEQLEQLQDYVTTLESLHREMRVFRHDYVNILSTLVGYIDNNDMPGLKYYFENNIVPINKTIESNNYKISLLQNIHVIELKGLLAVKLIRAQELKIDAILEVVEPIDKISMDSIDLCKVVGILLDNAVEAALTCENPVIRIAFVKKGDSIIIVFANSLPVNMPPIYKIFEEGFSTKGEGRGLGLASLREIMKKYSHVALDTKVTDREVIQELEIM

Molecule | Emax (L. monocytogenes AgrC [1]; read-out: Max Activation) [%] | other results
CSCC[C@@H]1NC(=O)[C@H](C)NC(=O)[C@@H](NC(=O)[C@H](C)N)CSC(=O)[C@H](C(C)C)NC(=O)[C@H](Cc2ccccc2)NC1=O [AIP F3A, A-(C-A-M-F-V)] (H-ACAMFV; thioester 2-C; N-terminus assumed) | – | Emax (L. monocytogenes AgrC [1]; [3]): 9.72%; agonism activity (in words) (L. monocytogenes AgrC [1]): abolished agonism activity; antagonism activity (in words) (L. monocytogenes AgrC [2]): no noticeable antagonism
CSCC[C@@H]1NC(=O)[C@@H](Cc2ccccc2)NC(=O)[C@@H](NC(=O)[C@H](C)N)CSC(=O)[C@H](C(C)C)NC(=O)[C@H](Cc2ccccc2)NC1=O [AIP F3dF, A-(C-dF-M-F-V)] (H-AC[dF]MFV; thioester 2-C; N-terminus assumed) | – | Emax (L. monocytogenes AgrC [1]; [3]): 6.63%; agonism activity (in words) (L. monocytogenes AgrC [1]): largely inactive; antagonism activity (in words) (L. monocytogenes AgrC [2]): largely inactive
CC(C)C[C@@H]1NC(=O)CNC(=O)[C@H](C(C)C)NC(=O)[C@@H](NC(=O)[C@@H](N)CO)CSC(=O)[C@H](CO)NC1=O [L. kieliensis AIP, S-(C-V-G-L-S), reference compound] (H-SCVGLS; thioester 2-C; N-terminus assumed) | 10.4 | –
CC[C@H](C)[C@@H]1NC(=O)[C@H](CC(C)C)NC(=O)[C@H](Cc2ccccc2)NC(=O)[C@@H](NC(=O)[C@@H](N)CO)CSC(=O)[C@H](Cc2ccccc2)NC1=O [L. newyorkensis AIP, S-(C-F-L-I-F), reference compound] (H-SCFLIF; thioester 2-C; N-terminus assumed) | 23.6 | agonism or antagonism activity compared to vehicle (FIG. 1B) (L. monocytogenes AgrC [1]): minimal efficacy
CC(C)C[C@@H]1NC(=O)[C@H](C(C)C)NC(=O)[C@@H](NC(=O)[C@@H](N)CO)CSC(=O)[C@H](CC(C)C)NC(=O)[C@H](Cc2c[nH]cn2)NC1=O [L. weihenstephanensis AIP, S-(C-V-L-H-L), reference compound] (H-SCVLHL; thioester 2-C; N-terminus assumed) | 11.2 | –
CSCC[C@@H]1NC(=O)[C@H](CO)NC(=O)[C@@H](NC(=O)[C@H](C)N)CSC(=O)[C@H](C(C)C)NC(=O)[C@H](Cc2ccccc2)NC1=O [Lm AIP F3S, A-(C-S-M-F-V)] (H-ACSMFV; thioester 2-C; N-terminus assumed) | 16.1 | –
CC[C@H](C)[C@@H]1NC(=O)[C@H](Cc2ccccc2)NC(=O)[C@H](CC(=O)O)NC(=O)[C@@H](NC(=O)[C@@H](NC(=O)[C@H](CO)NC(=O)[C@@H](N)Cc2ccc(O)cc2)[C@@H](C)O)CSC(=O)[C@H](CCSC)NC1=O [Sa AIP-I, Y-S-T-(C-D-F-I-M), reference compound] (H-YSTCDFIM; thioester 4-C) | 12.2 | –
CC(C)C[C@@H]1NC(=O)[C@H](CO)NC(=O)[C@H](CO)NC(=O)[C@@H](NC(=O)[C@H](C)NC(=O)[C@H](CC(N)=O)NC(=O)[C@@H](NC(=O)CN)C(C)C)CSC(=O)[C@H](Cc2ccccc2)NC1=O [Sa AIP-II, G-V-N-A-(C-S-S-L-F), reference compound] (H-GVNACSSLF; thioester 5-C) | 12 | –
CC[C@H](C)[C@H](N)C(=O)N[C@@H](CC(N)=O)C(=O)N[C@H]1CSC(=O)[C@H](CC(C)C)NC(=O)[C@H](CC(C)C)NC(=O)[C@H](Cc2ccccc2)NC(=O)[C@H](C)NC1=O [Sa AIP-III D4A, I-N-(C-A-F-L-L), reference compound] (H-INCAFLL; thioester 3-C) | 12.3 | –
CC[C@H](C)[C@H](N)C(=O)N[C@@H](CC(N)=O)C(=O)N[C@H]1CSC(=O)[C@H](CC(C)C)NC(=O)[C@H](CC(C)C)NC(=O)[C@H](Cc2ccccc2)NC(=O)[C@H](CC(=O)O)NC1=O [Sa AIP-III, I-N-(C-D-F-L-L), reference compound] (H-INCDFLL; thioester 3-C) | 11.3 | –
CC[C@H](C)[C@@H]1NC(=O)[C@H](Cc2ccccc2)NC(=O)[C@H](Cc2ccc(O)cc2)NC(=O)[C@@H](NC(=O)[C@@H](NC(=O)[C@H](CO)NC(=O)[C@@H](N)Cc2ccc(O)cc2)[C@@H](C)O)CSC(=O)[C@H](CCSC)NC1=O [Sa AIP-IV, Y-S-T-(C-Y-F-I-M), reference compound] (H-YSTCYFIM; thioester 4-C) | 9.81 | agonism or antagonism activity compared to vehicle (FIG. 1B) (L. monocytogenes AgrC [1]): minimal efficacy
CC(C)[C@H](NC(=O)[C@H](CO)NC(=O)[C@H](C)N)C(=O)N[C@H]1CSC(=O)[C@H](Cc2ccccc2)NC(=O)[C@H](Cc2ccc(O)cc2)NC(=O)[C@H](C)NC(=O)[C@H](C)NC1=O [Se AIP-I D1AS6A, A-S-V-(C-A-A-Y-F), reference compound] (H-ASVCAAYF; thioester 4-C) | 12.4 | –
C[C@H](N)C(=O)N[C@@H](CO)C(=O)N[C@@H](C)C(=O)N[C@H]1CSC(=O)[C@H](Cc2ccccc2)NC(=O)[C@H](Cc2ccc(O)cc2)NC(=O)[C@H](C)NC(=O)[C@H](C)NC1=O [Se AIP-I D1AV3AS6A, A-S-A-(C-A-A-Y-F), reference compound] (H-ASACAAYF; thioester 4-C) | 12.1 | –
CC(C)[C@H](NC(=O)[C@H](CO)NC(=O)[C@@H](N)CC(=O)O)C(=O)N[C@H]1CSC(=O)[C@H](Cc2ccccc2)NC(=O)[C@H](Cc2ccc(O)cc2)NC(=O)[C@H](CO)NC(=O)[C@H](C)NC1=O [Se AIP-I, D-S-V-(C-A-S-Y-F), reference compound] (H-DSVCASYF; thioester 4-C) | 8.65 | –
CC(C)C[C@@H]1NC(=O)[C@H](Cc2ccc(O)cc2)NC(=O)[C@H](CC(N)=O)NC(=O)[C@H](CO)NC(=O)[C@@H](NC(=O)[C@@H]2CCCN2C(=O)[C@H](CC(N)=O)NC(=O)[C@H](Cc2ccc(O)cc2)NC(=O)[C@H](CCCCN)NC(=O)[C@H](CO)NC(=O)[C@H](C)NC(=O)[C@@H](N)CC(N)=O)CSC1=O [Se AIP-II, N-A-S-K-Y-N-P-(C-S-N-Y-L), reference compound] (H-NASKYNPCSNYL; thioester 8-C) | 8.45 | –
CC(C)C[C@@H]1NC(=O)[C@H](Cc2ccc(O)cc2)NC(=O)[C@H](CO)NC(=O)[C@H](C)NC(=O)[C@@H](NC(=O)[C@@H]2CCCN2C(=O)[C@H](CC(N)=O)NC(=O)[C@H](Cc2ccc(O)cc2)NC(=O)[C@H](CCCCN)NC(=O)[C@H](C)NC(=O)[C@H](C)NC(=O)[C@@H](N)CC(N)=O)CSC1=O [Se AIP-III, N-A-A-K-Y-N-P-(C-A-S-Y-L), reference compound] (H-NAAKYNPCASYL; thioester 8-C) | 8.73 | –
A-(C-F-M-A-V) [AIP F5A] | – | Max Activation Observed (L. monocytogenes AgrC [1]; Table 6, normalized with 1 μM AIP (100%) and media (0%) in ΔagrD reporter): 6.37%; agonism activity (in words) (L. monocytogenes AgrC [1]): abolished agonism activity; antagonism activity (in words) (L. monocytogenes AgrC [2]): no noticeable antagonism
